# Source: patent publication US20260137790A1, “MIXED VASOPRESSIN RECEPTOR AGONIST-ANTAGONIST FOR MODULATING MEAN ARTERIAL PRESSURE” (FERRING B.V., priority 2022, published 2026)
# Like-named read-outs stand apart in the source and are kept apart here. Starred links: 1 amine or outer side, 2 acyl side, 3 side chain; linkers in the order of their positions; H or OH if unused. Positions of bridges follow the written chain, without caps; N, C: chain ends. Non-standard residues stand in square brackets, D forms with d. Residues, ends and D or L forms follow the SMILES beside them. Groups on a side chain read outwards from the residue. Chains are numbered I, II in the order given. *: point of attachment. X1 = CC(=O)NCCCC[C@H](NC(=O)CC[C@H](N)C(N)=O)C(=O)*; isoGln = NC(=O)[C@H](CCC(=O)[*:2])N[*:1]; εLys = N[C@@H](CCCCN[*:1])C(=O)[*:2]; Dab = NCC[C@H](N)C(=O)O; PhAc = O=C(Cc1ccccc1)*
# Tests used:
# [1] = SC (bolus) injection of high/low buffer compositions in rats: bioavailability, M1 formation; format: in vivo, rat; conditions: for bioavailability: rat, in vivo, sc, bioavailability of Compound 1, rats
# [2] = system: adult male cynomolgus monkeys; experiment: Telemetry MAP in healthy monkeys, Compound 1 versus terlipressin; format: in vivo, cynomolgus monkey; conditions: monkey
# Description: The in-life portion of the study was performed over multiple dosing sessions using six non-naive adult male cynomolgus monkeys. Animals were previously (3-4 weeks before study start) instrumented with indwelling pressure telemetry devices and trained to be restrained in chairs. Animals had access to food and drinking water ad libitum.
# Stock solutions were diluted in saline on the day of administration. Animals with indwelling pressure telemetry devices were trained to be restrained in chairs for 8-h periods.
# On the day of administration, animals were restrained, and telemetric measurements were collected continuously starting ≥2 h before administration. Baseline values of arterial pressure (diastolic and systolic), heart rate, and body temperature were obtained. […].
# The data reported herein were collected over 19 dosing sessions of four animals each, using a total of six monkeys. Animals were repeat dosed in a crossover design with at least one animal receiving vehicle for each round; the animal receiving vehicle was varied between rounds. A 48- to 72-h washout period was used between dosing sessions. Animals were observed by camera for ˜1 h before dosing (covering the baseline period) and up to 3 h after dosing.
# [3] = system: methionine/choline-deficient (MCD) diet rats; experiment: Methionine/choline-deficient (MCD) diet rat model, MAP and portal pressure; conditions: for Δ MAP, mean / Δ PP, mean: 100 μg/kg IA
# [4] = Metabolite M1 formation in healthy rats after IV bolus and SC (bolus) injection; format: in vivo; conditions: rat
# Description: A similar study in healthy rats was used to evaluate the differences between metabolite formation of Compound 1 after IV bolus and SC (bolus) injection.
# [5] = human, in vivo; for AUC: M1 AUC; for Tmax: M1 tmax
# Description: (§1) The trial comprised two treatment periods, treatment Period 1 and treatment Period 2 (see FIG. 1).
# (§2) The study was conducted in two periods where the treatment in Period 1 was administered as an intravenous infusion, and the treatment in Period 2 was administered as subcutaneous injections. The trial comprised 5 ascending dose panels, each dose panel comprising 8 healthy subjects (6 active, 2 placebo). A new cohort of subjects was used for each dose panel.
# (§3) If no safety concerns arose, as judged by the Investigator, the remaining subjects in that dose group were randomized and treated according to the randomization and protocol in a staggered dosing manner.
# (§4) Treatment period 2: After a resting period of 2-18 days each subject received a once daily subcutaneous dose for 5 days of the same treatment as in Period 1. The dose was selected to prevent the exposure to exceed the intravenous exposure. […] A SRC evaluated the safety and tolerability of the compound after the completion of all subjects in the dose group.
# (§5) The continuation of the same subjects from intravenous to subcutaneous administration was selected to get an as reliable as possible estimate of the bioavailability (F) in the small groups outlined.
# (§6) The intravenous dose to the first dose panel was the lowest dose giving a clear signal of pharmacological activity in the preceding trial. The administration was performed by using a piston-driven syringe auto-infusion pump. The administered volume was recorded for each subject.
# (§7) In Period 2, subjects received a once-daily subcutaneous injection for 5 days of the same treatment as in Period 1 at different locations on the abdomen (Table 5). The subcutaneous doses were selected based on data from a previous trial.
# [6] = in vivo
# Description: as §1, §2, §3, §4, §5, §6, §7
smiles,measurement,setting,value
CC[C@H](C)[C@@H]1NC(=O)[C@H](Cc2ccccc2)NC(=O)[C@@H](N)CSSC[C@@H](C(=O)N2CCC[C@H]2C(=O)N[C@@H](CCNC(=O)[C@@H](N)CCCCNC(=O)[C@H](CCCCNC(C)=O)NC(=O)CC[C@H](NC(=O)[C@H](CCCNC(=N)N)NC(=O)[C@@H]2CCCN2C(=O)[C@H](C)NC(=O)[C@H](CC(N)=O)NC(=O)[C@H](CCC(N)=O)NC(=O)[C@H](Cc2ccccc2)NC(=O)[C@@H](Cc2ccc(OC)cc2)NC(=O)Cc2ccccc2)C(N)=O)C(=O)NCC(N)=O)NC(=O)[C@H](CC(N)=O)NC(=O)[C@H](CCC(N)=O)NC1=O [Compound 1] (I: H-CFIQNCP[Dab]G-NH2 / II: PhAc-[dY](Me)FQNAPR[isoGln]K(Ac)[εLys]; disulfide I:1-I:6; amide I:8-II:C),bioavailability,[1]; buffer about 10 mM,~13%
same,bioavailability,[1]; buffer about 100 mM,~37%
NCCCC[C@H](NC(=O)[C@@H]1CCCN1C(=O)[C@@H]1CSSC[C@H](NC(=O)CNC(=O)CNC(=O)CN)C(=O)N[C@@H](Cc2ccc(O)cc2)C(=O)N[C@@H](Cc2ccccc2)C(=O)N[C@@H](CCC(N)=O)C(=O)N[C@@H](CC(N)=O)C(=O)N1)C(=O)NCC(N)=O [Terlipressin] (H-GGGCYFQNCPKG-NH2; disulfide 4-9),average increase in MAP between 30 min and 5 h,[2]; IV bolus 0.03 mg/kg,6.0 mmHg
same,maximum MAP increase from baseline,[2]; IV bolus 0.03 mg/kg,29.6±3.6 mmHg
same,average increase in MAP between 30 min and 5 h,[2]; IV bolus 0.09 mg/kg,5.8 mmHg
same,maximum MAP increase from baseline,[2]; IV bolus 0.09 mg/kg,29.9±6.2 mmHg
same,average increase in MAP between 30 min and 5 h,[2]; IV bolus 0.17 mg/kg,14.6 mmHg
same,maximum MAP increase from baseline,[2]; IV bolus 0.17 mg/kg,50.8±5.6 mmHg
same,average increase in MAP between 30 min and 5 h,[2]; IV bolus 0.34 mg/kg,14.7 mmHg
same,maximum MAP increase from baseline,[2]; IV bolus 0.34 mg/kg,41.2±7.5 mmHg
same,time of maximum MAP increase,"[2]; IV bolus, across groups",5 to 30 min
same,time by which Δ MAP was negligible,"[2]; IV bolus, all groups",150 min
same,"Δ MAP, mean",[3]; 0 min,0.0 mmHg
same,"Δ PP, mean",[3]; 0 min,0.0 mmHg
same,"Δ MAP, mean",[3]; 1 min,6.1 mmHg
same,"Δ PP, mean",[3]; 1 min,−1.5 mmHg
same,"Δ MAP, mean",[3]; 2 min,10.8 mmHg
same,"Δ PP, mean",[3]; 2 min,−2.1 mmHg
same,"Δ MAP, mean",[3]; 3 min,18.1 mmHg
same,"Δ PP, mean",[3]; 3 min,−2.3 mmHg
same,"Δ MAP, mean",[3]; 5 min,26.3 mmHg
same,"Δ PP, mean",[3]; 5 min,−2.4 mmHg
same,"Δ MAP, mean",[3]; 7 min,30.1 mmHg
same,"Δ PP, mean",[3]; 7 min,−2.5 mmHg
same,"Δ MAP, mean",[3]; 10 min,32.0 mmHg
same,"Δ PP, mean",[3]; 10 min,−2.4 mmHg
same,"Δ MAP, mean",[3]; 15 min,32.9 mmHg
same,"Δ PP, mean",[3]; 15 min,−2.5 mmHg
same,"Δ MAP, mean",[3]; 20 min,33.5 mmHg
same,"Δ PP, mean",[3]; 20 min,−2.6 mmHg
same,"Δ MAP, mean",[3]; 30 min,31.7 mmHg
same,"Δ PP, mean",[3]; 30 min,−2.5 mmHg
same,"Δ MAP, mean",[3]; 60 min,13.3 mmHg
same,"Δ PP, mean",[3]; 60 min,−2.8 mmHg
same,"Δ MAP, mean",[3]; 90 min,5.2 mmHg
same,"Δ PP, mean",[3]; 90 min,−0.8 mmHg
same,highest observed absolute MAP,[3]; 100 μg/kg intra-arterial,116.6±4.1 mmHg
same,maximum ΔMAP,[3]; 100 μg/kg intra-arterial,33.5±2.6 mmHg
same,maximum ΔPP,[3]; 100 μg/kg intra-arterial,−2.8±0.8 mmHg
CC[C@H](C)[C@@H]1NC(=O)[C@H](Cc2ccccc2)NC(=O)[C@@H](N)CSSC[C@@H](C(=O)N2CCC[C@H]2C(=O)N[C@@H](CCNC(=O)[C@@H](N)CCCCNC(=O)[C@H](CCCCNC(C)=O)NC(=O)CC[C@H](N)C(N)=O)C(=O)NCC(N)=O)NC(=O)[C@H](CC(N)=O)NC(=O)[C@H](CCC(N)=O)NC1=O [Compound M1] (H-CFIQNCP[Dab]([εLys-X1])G-NH2; disulfide 1-6),Compound 1 converted to M1,[4],80-90%
same,"relative amount of M1 formed, more with 10 mM than with 100 mM buffer",[1]; rats,at least 15%
same,"relative amount of M1 formed, less with high vs lower buffer concentration","[1]; rats, in some cases",about 50%
same,Cmax,"[5]; iv, 0.9 mg, M1 mean Cmax",0.1 to 0.25 ng/mL
same,half-life,"[5]; iv, M1 harmonic mean terminal half-life",~4 h
same,AUC,"[5]; sc, 0.1 mg, geometric mean",2.51 ng·h/mL
same,AUC,"[5]; sc, 0.1 mg, max",3.5 ng·h/mL
same,AUC,"[5]; sc, 0.1 mg, mean",2.6 ng·h/mL
same,AUC,"[5]; sc, 0.1 mg, min",1.71 ng·h/mL
same,Cmax,"[5]; sc, 0.1 mg, M1 Cmax, geometric mean",0.9 ng/mL
same,Cmax,"[5]; sc, 0.1 mg, M1 Cmax, max",1.28 ng/mL
same,Cmax,"[5]; sc, 0.1 mg, M1 Cmax, mean",0.93 ng/mL
same,Cmax,"[5]; sc, 0.1 mg, M1 Cmax, min",0.7 ng/mL
same,half-life,"[5]; sc, 0.1 mg, M1 t1/2, harmonic mean",1.5 h
same,half-life,"[5]; sc, 0.1 mg, M1 t1/2, max",2.1 h
same,half-life,"[5]; sc, 0.1 mg, M1 t1/2, mean",1.6 h
same,half-life,"[5]; sc, 0.1 mg, M1 t1/2, min",1 h
same,Tmax,"[5]; sc, 0.1 mg, max",2 h
same,Tmax,"[5]; sc, 0.1 mg, mean",0.8 h
same,Tmax,"[5]; sc, 0.1 mg, median",0.5 h
same,Tmax,"[5]; sc, 0.1 mg, min",0.3 h
same,AUC,"[5]; sc, 0.3 mg, geometric mean",6.71 ng·h/mL
same,AUC,"[5]; sc, 0.3 mg, max",10.2 ng·h/mL
same,AUC,"[5]; sc, 0.3 mg, mean",7.55 ng·h/mL
same,AUC,"[5]; sc, 0.3 mg, min",3.2 ng·h/mL
same,AUC,"[5]; sc, 0.3 mg, min, max (n 1)",11.3 ng·h/mL
same,Cmax,"[5]; sc, 0.3 mg, M1 Cmax, geometric mean",1.63 ng/mL
same,Cmax,"[5]; sc, 0.3 mg, M1 Cmax, max",2.93 ng/mL
same,Cmax,"[5]; sc, 0.3 mg, M1 Cmax, mean",2.01 ng/mL
same,Cmax,"[5]; sc, 0.3 mg, M1 Cmax, min",0.6 ng/mL
same,half-life,"[5]; sc, 0.3 mg, M1 harmonic mean terminal half-life",1.5 to 2 h
same,half-life,"[5]; sc, 0.3 mg, M1 t1/2, harmonic mean",1.9 h
same,half-life,"[5]; sc, 0.3 mg, M1 t1/2, max",2.4 h
same,half-life,"[5]; sc, 0.3 mg, M1 t1/2, mean",2 h
same,half-life,"[5]; sc, 0.3 mg, M1 t1/2, min",1.5 h
same,half-life,"[5]; sc, 0.3 mg, M1 t1/2, min, max (n 1)",2.1 h
same,Tmax,"[5]; sc, 0.3 mg",0.5 to 1.5 h
same,Tmax,"[5]; sc, 0.3 mg, max",1.1 h
same,Tmax,"[5]; sc, 0.3 mg, mean",0.8 h
same,Tmax,"[5]; sc, 0.3 mg, median",1 h
same,Tmax,"[5]; sc, 0.3 mg, min",0.5 h
same,M1 time of Cmax,"[6]; human, iv",approx. 5 hours
same,"M1 AUC, geometric mean","[6]; human, sc, 0.1 mg",2.68 ng·h/mL
same,"M1 AUC, max","[6]; human, sc, 0.1 mg",3.10 ng·h/mL
same,"M1 AUC, mean","[6]; human, sc, 0.1 mg",2.70 ng·h/mL
same,"M1 AUC, min","[6]; human, sc, 0.1 mg",2.39; h*ng/mL
same,"M1 Cmax, geometric mean","[6]; human, sc, 0.1 mg",0.98 ng/mL
same,"M1 Cmax, max","[6]; human, sc, 0.1 mg",1.27 ng/mL
same,"M1 Cmax, mean","[6]; human, sc, 0.1 mg",1.01 ng/mL
same,"M1 Cmax, min","[6]; human, sc, 0.1 mg",0.74; ng/mL
same,"M1 t1/2, harmonic mean","[6]; human, sc, 0.1 mg",1.4 h
same,"M1 t1/2, max","[6]; human, sc, 0.1 mg",2.2 h
same,"M1 t1/2, mean","[6]; human, sc, 0.1 mg",1.6 h
same,"M1 t1/2, min","[6]; human, sc, 0.1 mg",0.8; h
same,"M1 tmax, min","[6]; human, sc, 0.1 mg",0.5; h
same,"M1 Cmax, geometric mean","[6]; human, sc, 0.3 mg",1.76 ng/mL
same,"M1 Cmax, max","[6]; human, sc, 0.3 mg",3.62 ng/mL
same,"M1 Cmax, mean","[6]; human, sc, 0.3 mg",2.24 ng/mL
same,"M1 Cmax, min","[6]; human, sc, 0.3 mg",0.86; ng/mL
same,"M1 t1/2, mean","[6]; human, sc, 0.3 mg",2.1 h
same,"M1 tmax, mean","[6]; human, sc, 0.3 mg",1.5 h
same,"M1 tmax, median","[6]; human, sc, 0.3 mg",1.5 h
same,"M1 tmax, min","[6]; human, sc, 0.3 mg",1.0; h
same,formation of M1,[6]; iv,0-15%
